According to patent US11976051B1, “N′-(2-(5-(4-chlorophenyl)-1,3,4-oxadiazol-2-ylthio)acetoxy)-2-naphthimidamide as an antimicrobial compound” (KING FAISAL UNIVERSITY, priority 2023, dated 2024):

Tests used:
Bacillus cereus = experiment: Agar plate disc-diffusion, antibacterial activity; type: cell-based; conditions: nutrient agar, 37° C., 48 h
Method: (§1) The agar plate disc-diffusion method was applied. […] The discs were then placed onto the surface of agar plates (nutrient agar for bacteria and Sabouraud's dextrose agar for fungi) seeded with the test organism. Each plate contained 15 mL of the agar medium, previously seeded with 0.2 mL of the broth culture of each organism pregrown for 18 h. The plates were incubated at 37° C. for 48 h, and 72 h for fungi. The inhibition zones was measured in mm. Discs impregnated with DMSO were used as a control, and its inhibition zone was subtracted from the tested compound actual inhibition zone.
(§2) The antibacterial activity was screened against gram positive bacteria namely Bacillus cereus and Staphylococcus aureus and gram-negative bacterial strains namely Pseudomonas aeruginosa and Escherichia coli, while the antifungal activity was screened against Aspergillus flavus and Chrysosporium keratinophilum as shown in Table 1 and 2.

Pseudomonas aeruginosa = experiment: Agar plate disc-diffusion, antibacterial activity; type: cell-based; conditions: nutrient agar, 37° C., 48 h
Method: as §1, §2

Staphylococcus aureus = experiment: Agar plate disc-diffusion, antibacterial activity; type: cell-based; conditions: nutrient agar, 37° C., 48 h
Method: as §1, §2

Escherichia coli = experiment: Agar plate disc-diffusion, antibacterial activity; type: cell-based; conditions: nutrient agar, 37° C., 48 h
Method: (§3) The agar plate disc-diffusion method was applied. Sterilized filter papers (6 mm in diameter) were wetted with […] of a solution of N′-(2-(5-(4-chlorophenyl)-1,3,4-oxadiazol-2-ylthio)acetoxy)-2-naphthimidamide (3) to be tested, containing 10 mg/mL in DMSO, and the discs were allowed to air dry. The discs were then placed onto the surface of agar plates (nutrient agar for bacteria and Sabouraud's dextrose agar for fungi) seeded with the test organism. Each plate contained 15 mL of the agar medium, previously seeded with 0.2 mL of the broth culture of each organism pregrown for 18 h. The plates were incubated at 37° C. for 48 h, and 72 h for fungi. The inhibition zones was measured in mm. Discs impregnated with DMSO were used as a control, and its inhibition zone was subtracted from the tested compound actual inhibition zone.
as §2

Aspergillus flavus = experiment: Agar plate disc-diffusion, antifungal activity; type: cell-based; conditions: Sabouraud's dextrose agar, 72 h
Method: as §3, §2

[1] = system: Chrysosporium keratinophilum; experiment: Agar plate disc-diffusion, antifungal activity; type: cell-based; conditions: Sabouraud's dextrose agar, 72 h
Method: as §1, §2

[2] = A = concentration of comp. = 10 mg/mL
[3] = B = concentration of comp. = 30,000 μL
[4] = C = concentration of comp. = 50,000 μL
[5] = A = concentration of comp. = 10,000 μg/mL

N/C(=N\OC(=O)CSc1nnc(-c2ccc(Cl)cc2)o1)c1ccc2ccccc2c1 [Compound 3, N′-(2-(5-(4-chlorophenyl)-1,3,4-oxadiazol-2-ylthio)acetoxy)-2-naphthimidamide]
inhibition zone, Bacillus Cereus (Bacillus cereus; [2]): 31 mm
inhibition zone, Bacillus Cereus (Bacillus cereus; [3]): 36 mm
inhibition zone, Bacillus Cereus (Bacillus cereus; [4]): 43 mm
inhibition zone, Pseudomonas aeruginosa (Pseudomonas aeruginosa; [2]): 26 mm
inhibition zone, Pseudomonas aeruginosa (Pseudomonas aeruginosa; [3]): 33 mm
inhibition zone, Pseudomonas aeruginosa (Pseudomonas aeruginosa; [4]): 39 mm
inhibition zone, Staphylococcus aureus (Staphylococcus aureus; [2]): 17 mm
inhibition zone, Staphylococcus aureus (Staphylococcus aureus; [3]): 24 mm
inhibition zone, Staphylococcus aureus (Staphylococcus aureus; [4]): 29 mm
inhibition zone, Escherichia coli (Escherichia coli; [5]): 35 mm
inhibition zone, Escherichia coli (Escherichia coli; [3]): 41 mm
inhibition zone, Escherichia coli (Escherichia coli; [4]): 47 mm
inhibition zone, Aspergillus flavus (Aspergillus flavus; A = concentration of comp. = 10,000 μL): 25 mm
inhibition zone, Aspergillus flavus (Aspergillus flavus; [3]): 28 mm
inhibition zone, Aspergillus flavus (Aspergillus flavus; [4]): 37 mm
inhibition zone, Chrysosporium keratinophilum [1, 5]: 23 mm
inhibition zone, Chrysosporium keratinophilum [1, 3]: 29 mm
inhibition zone, Chrysosporium keratinophilum [1, 4]: 38 mm
melting point: 181 to 182 °C
